Relative viability data for 6 cell lines are collected here from the supplement of paper PMC10307832.

Test in all cases: relative viability (nuclei count vs DMSO), 5 days (fraction); higher = more cells survive
Compound in the assay “Neratinib + Decitabine”: CCOc1cc2ncc(C#N)c(Nc3ccc(OCc4ccccn4)c(Cl)c3)c2cc1NC(=O)/C=C/CN(C)C [Neratinib] + Nc1ncn([C@H]2C[C@H](O)[C@@H](CO)O2)c(=O)n1 [Decitabine] (partner 2 µM)
Summed up:
(§1)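 Five library-drug doses in √10 steps were combined with a fixed anchor-drug dose, or a single drug was given alone, by pin tool to lung cancer cell lines in 1536-well plates the day after seeding. Nuclei were stained and counted after 5 days. Relative viability is the nuclei count in treated wells over that in vehicle wells, taken as the median of duplicate plates.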

Compound in the assay “Neratinib + Phenformin”: CCOc1cc2ncc(C#N)c(Nc3ccc(OCc4ccccn4)c(Cl)c3)c2cc1NC(=O)/C=C/CN(C)C [Neratinib] + N=C(N)NC(=N)NCCc1ccccc1 [Phenformin] (partner 250 µM)
An outline of the steps: as §1

Compound in the assay “Neratinib + Palbociclib”: CCOc1cc2ncc(C#N)c(Nc3ccc(OCc4ccccn4)c(Cl)c3)c2cc1NC(=O)/C=C/CN(C)C [Neratinib] + CC(=O)c1c(C)c2cnc(Nc3ccc(N4CCNCC4)cn3)nc2n(C2CCCC2)c1=O [Palbociclib] (partner 0.5 µM)
An outline of the steps:
as §1

Compound in the assay “Neratinib + Pictilisib”: CCOc1cc2ncc(C#N)c(Nc3ccc(OCc4ccccn4)c(Cl)c3)c2cc1NC(=O)/C=C/CN(C)C [Neratinib] + CS(=O)(=O)N1CCN(Cc2cc3nc(-c4cccc5[nH]ncc45)nc(N4CCOCC4)c3s2)CC1 [Pictilisib] (partner 1 µM)
Summed up: as §1

NCI-H2085: the relative viability is 0.595 with Neratinib + Decitabine (first compound 0.01 µM); 0.547 with Neratinib + Decitabine (first compound 0.03162 µM); 0.542 with Neratinib + Decitabine (first compound 0.1 µM); 0.485 with Neratinib + Decitabine (first compound 0.3162 µM); 0.516 with Neratinib + Decitabine (first compound 1 µM); 0.795 with Neratinib + Phenformin (first compound 0.01 µM). For the same cell line, the relative viability is 0.683 in the assay with Neratinib + Phenformin (first compound 0.03162 µM); 0.708 with Neratinib + Phenformin (first compound 0.1 µM); 0.567 with Neratinib + Phenformin (first compound 0.3162 µM); 0.437 with Neratinib + Phenformin (first compound 1 µM); 0.468 in the assay with Neratinib + Palbociclib (first compound 0.01 µM); 0.456 with Neratinib + Palbociclib (first compound 0.03162 µM). For the same cell line, the relative viability in the assay with Neratinib + Palbociclib (first compound 0.1 µM) turned out to be 0.467; with Neratinib + Palbociclib (first compound 0.3162 µM) it was 0.419; in the assay with Neratinib + Palbociclib (first compound 1 µM), 0.382; with Neratinib + Pictilisib (first compound 0.01 µM), 0.526; with Neratinib + Pictilisib (first compound 0.03162 µM), 0.436; with Neratinib + Pictilisib (first compound 0.1 µM) it was 0.462. Further, the relative viability with Neratinib + Pictilisib (first compound 0.3162 µM) stood at 0.408; in the assay with Neratinib + Pictilisib (first compound 1 µM), 0.373.
For COR-L 105, the relative viability in the assay with Neratinib + Decitabine (first compound 0.01 µM) came out at 0.674; with Neratinib + Decitabine (first compound 0.03162 µM), 0.618; in the assay with Neratinib + Decitabine (first compound 0.1 µM), 0.402; in the assay with Neratinib + Decitabine (first compound 1 µM) it was 0.349; with Neratinib + Phenformin (first compound 0.01 µM), 0.537; in the assay with Neratinib + Phenformin (first compound 0.03162 µM), 0.467. The relative viability in the assay with Neratinib + Phenformin (first compound 0.1 µM) was 0.304; in the assay with Neratinib + Phenformin (first compound 0.3162 µM), 0.221; with Neratinib + Phenformin (first compound 1 µM) it was 0.193; with Neratinib + Palbociclib (first compound 0.01 µM), 0.397; with Neratinib + Palbociclib (first compound 0.03162 µM), 0.451; with Neratinib + Palbociclib (first compound 0.1 µM), 0.385. The relative viability is 0.351 in the assay with Neratinib + Palbociclib (first compound 0.3162 µM); 0.341 in the assay with Neratinib + Palbociclib (first compound 1 µM); 0.455 with Neratinib + Pictilisib (first compound 0.01 µM); 0.412 with Neratinib + Pictilisib (first compound 0.03162 µM); 0.377 in the assay with Neratinib + Pictilisib (first compound 0.1 µM); 0.31 with Neratinib + Pictilisib (first compound 0.3162 µM). The relative viability with Neratinib + Pictilisib (first compound 1 µM) was determined as 0.312.
NCI-H1734: the relative viability amounted to 0.539 with Neratinib + Decitabine (first compound 0.01 µM); 0.579 with Neratinib + Decitabine (first compound 0.03162 µM); 0.54 in the assay with Neratinib + Decitabine (first compound 0.3162 µM); 0.481 in the assay with Neratinib + Decitabine (first compound 1 µM); 0.428 with Neratinib + Phenformin (first compound 0.01 µM); 0.429 with Neratinib + Phenformin (first compound 0.03162 µM). Also, the relative viability in the assay with Neratinib + Phenformin (first compound 0.1 µM) worked out at 0.382; in the assay with Neratinib + Phenformin (first compound 0.3162 µM), 0.412; with Neratinib + Phenformin (first compound 1 µM) it was 0.32; with Neratinib + Palbociclib (first compound 0.01 µM), 0.409; in the assay with Neratinib + Palbociclib (first compound 0.03162 µM), 0.395; with Neratinib + Palbociclib (first compound 0.1 µM), 0.241. For the same cell line, the relative viability was 0.328 in the assay with Neratinib + Palbociclib (first compound 0.3162 µM); 0.28 in the assay with Neratinib + Palbociclib (first compound 1 µM); 0.5 in the assay with Neratinib + Pictilisib (first compound 0.01 µM); 0.464 with Neratinib + Pictilisib (first compound 0.03162 µM); 0.428 with Neratinib + Pictilisib (first compound 0.1 µM); 0.432 in the assay with Neratinib + Pictilisib (first compound 0.3162 µM). Also, the relative viability with Neratinib + Pictilisib (first compound 1 µM) is 0.346.
Consider NCI-H322M, for which the relative viability with Neratinib + Decitabine (first compound 0.01 µM) was determined as 0.678; in the assay with Neratinib + Decitabine (first compound 0.03162 µM), 0.643; with Neratinib + Decitabine (first compound 0.1 µM), 0.646; with Neratinib + Decitabine (first compound 0.3162 µM), 0.558; with Neratinib + Decitabine (first compound 1 µM), 0.39; in the assay with Neratinib + Phenformin (first compound 0.01 µM), 0.762. The relative viability with Neratinib + Phenformin (first compound 0.03162 µM) was found to be 0.671; with Neratinib + Phenformin (first compound 0.1 µM), 0.671; with Neratinib + Phenformin (first compound 0.3162 µM) it was 0.376; with Neratinib + Phenformin (first compound 1 µM) it was 0.283; with Neratinib + Palbociclib (first compound 0.01 µM), 0.468; with Neratinib + Palbociclib (first compound 0.03162 µM) it was 0.475. The relative viability with Neratinib + Palbociclib (first compound 0.1 µM) came to 0.417; with Neratinib + Palbociclib (first compound 0.3162 µM), 0.376; with Neratinib + Palbociclib (first compound 1 µM) it was 0.41; with Neratinib + Pictilisib (first compound 0.01 µM), 0.528; with Neratinib + Pictilisib (first compound 0.03162 µM), 0.455; in the assay with Neratinib + Pictilisib (first compound 0.1 µM), 0.499. For the same cell line, the relative viability with Neratinib + Pictilisib (first compound 0.3162 µM) came out at 0.333; with Neratinib + Pictilisib (first compound 1 µM), 0.327.
In the case of HCC-78, the relative viability in the assay with Neratinib + Decitabine (first compound 0.01 µM) worked out at 0.816; with Neratinib + Decitabine (first compound 0.1 µM) it was 0.651; in the assay with Neratinib + Decitabine (first compound 0.3162 µM) it was 0.691; in the assay with Neratinib + Decitabine (first compound 1 µM), 0.649; with Neratinib + Phenformin (first compound 0.01 µM), 0.724; with Neratinib + Phenformin (first compound 0.03162 µM), 0.731. For the same cell line, the relative viability was 0.624 in the assay with Neratinib + Phenformin (first compound 0.1 µM); 0.545 in the assay with Neratinib + Phenformin (first compound 0.3162 µM); 0.296 with Neratinib + Phenformin (first compound 1 µM); 0.467 in the assay with Neratinib + Palbociclib (first compound 0.01 µM); 0.479 with Neratinib + Palbociclib (first compound 0.03162 µM); 0.409 in the assay with Neratinib + Palbociclib (first compound 0.1 µM). Moreover, the relative viability was 0.424 in the assay with Neratinib + Palbociclib (first compound 0.3162 µM); 0.463 with Neratinib + Palbociclib (first compound 1 µM); 0.184 in the assay with Neratinib + Pictilisib (first compound 0.01 µM); 0.233 with Neratinib + Pictilisib (first compound 0.03162 µM); 0.215 with Neratinib + Pictilisib (first compound 0.1 µM); 0.215 with Neratinib + Pictilisib (first compound 0.3162 µM). The relative viability in the assay with Neratinib + Pictilisib (first compound 1 µM) came to 0.182.
Take NCI-H2087: the relative viability was 0.272 with Neratinib + Decitabine (first compound 0.01 µM); 0.333 with Neratinib + Decitabine (first compound 0.03162 µM); 0.239 with Neratinib + Decitabine (first compound 0.1 µM); 0.254 with Neratinib + Decitabine (first compound 0.3162 µM); 0.215 with Neratinib + Decitabine (first compound 1 µM); 0.493 with Neratinib + Phenformin (first compound 0.01 µM). In addition, the relative viability amounted to 0.567 with Neratinib + Phenformin (first compound 0.03162 µM); 0.391 in the assay with Neratinib + Phenformin (first compound 0.1 µM); 0.415 in the assay with Neratinib + Phenformin (first compound 0.3162 µM); 0.234 with Neratinib + Phenformin (first compound 1 µM); 0.212 with Neratinib + Palbociclib (first compound 0.01 µM); 0.271 with Neratinib + Palbociclib (first compound 0.03162 µM). The relative viability with Neratinib + Palbociclib (first compound 0.1 µM) is 0.217; with Neratinib + Palbociclib (first compound 0.3162 µM) it was 0.182; with Neratinib + Palbociclib (first compound 1 µM), 0.14; with Neratinib + Pictilisib (first compound 0.01 µM) it was 0.989; with Neratinib + Pictilisib (first compound 0.03162 µM), 0.899; with Neratinib + Pictilisib (first compound 0.3162 µM), 0.799. Moreover, in the assay with Neratinib + Pictilisib (first compound 1 µM), the relative viability was determined as 0.492.
